US20260035338A1, “AMINO LIPID COMPOUND AND LIPID NANOPARTICLE FOR DELIVERING BIOACTIVE INGREDIENT” (SHENZHEN SHENXIN BIOTECHNOLOGY CO., LTD., priority 2022, published 2026)

Key:
BALB/c mice = experiment: In vivo delivery of Fluc mRNA-encapsulating LNP formulations, luciferase signal by In Vivo Imaging System (IVIS); conditions: tail vein injection (IV) 70 μL, female BALB/c mice, 6 hours after injection; for Average number of photons (Total in-vivo flux): LNP formulation encapsulating Fluc mRNA (Lipid:DSPC:CHO-HP:M-DMG-2000 48:10:40.5:1.5); for Average number of photons (Liver) / Average number of photons (Spleen): LNP formulation encapsulating Fluc mRNA
Method: Animal preparation: Female BALB/c mice of 6-8 weeks old were selected and raised in an SPF grade breeding room. Animal testing was conducted in strict accordance with the guidelines of national health institutions and animal ethics requirements.
In vivo Delivery: prior to injection of the test LNP formulation, the LNP formulation was gently and repeatedly inverted to thoroughly mix the sample of the formulation. A corresponding amount of the LNP formulation was aspirated with a 1 ml insulin syringe, and the LNP formulation was injected by tail vein injection (IV), with 3 mice in duplicate per formulation. Each mouse was injected with 70 μL of the corresponding LNP formulation encapsulating the luciferase mRNA (Fluc mRNA) prepared in Experimental Example 1.
6 hours after injection of LNP formulations, mice were injected with 200 μL D-Luciferin luciferase developing substrate (Catalog No. 122799; Manufacturer: Perkin Elmer). After the substrate was injected, the mice were anesthetized with isoflurane inhalation, and the injection time of luciferase developing substrate was recorded.
The encapsulation efficiency of the lipid nanoparticle encapsulating luciferase mRNA (Fluc mRNA) with a representative amino lipid compound and the fluorescence expression intensity induced by the same are shown in Table 4, with the LNP formulation containing SM-102, 1001 or ALC-0315 as a control LNP formulation. The preparation method of the control LNP formulation was basically the same as that of the LNP formulations in Experimental Example 1, with the difference lying in that the amino lipid compounds of the present disclosure were replaced with SM-102, 1001 or ALC-0315 in the preparation of the control LNP formulation.

[1] = test system: immune cell populations in the spleen and PBMC; experiment: Delivery efficiency of eGFP mRNA LNP to immune cell populations in spleen and peripheral blood (flow cytometry); assay type: in vivo; conditions: eGFP mRNA encapsulating LNP, intravenous, C57BL/6 mice, 12 hours, flow cytometry (FIG. 6 to 7)
Method: C57BL/6 mice (3 mice per group) were intravenously injected with eGFP mRNA encapsulating LNP. After 12 hours, the mice were dissected, and the spleen and peripheral blood, were collected to prepare single-cell suspensions of various tissues and organs. After blocking with Fc blocking antibodies and surface staining with fluorescent-labeled antibodies, flow cytometry was conducted to analyze the expression levels of eGFP in various immune cell populations to confirm the delivery efficiency of lipid nanoparticles comprising different amino lipid compounds to immune cell populations in different tissues and organs.
“Blank” in FIG. 6 and FIG. 7 refers to the control group injected with 100 μL Tris buffer.

Compound | Average number of photons (Total in-vivo flux) (BALB/c mice) | Average number of photons (Liver) (BALB/c mice) | Average number of photons (Spleen) (BALB/c mice) | delivery efficiency to immune cell populations (eGFP expression) [1]
CCCCCCOC(CCCOC(=O)CCCCCC(CCCCCC(=O)OCCCC(OCCCCCC)OCCCCCC)OC(=O)OCCCN(CC)CC)OCCCCCC [compound 2043] | 1.64E+08 | 2.59E+07 | 1.07E+07 | different delivery preferences to different immune cells
CCCCCCOC(CCCOC(=O)CCCCCCCCC(CCCCCCCCC(=O)OCCCC(OCCCCCC)OCCCCCC)OC(=O)OCCCN(C)C)OCCCCCC [compound 388] | 1.94E+08 | 3.66E+07 | 1.34E+06 | different delivery preferences to different immune cells
CCCCCCOC(CCCOC(=O)CCCCCCCCC(CCCCCCCCC(=O)OCCCC(OCCCCCC)OCCCCCC)OC(=O)OCCCN(CC)CC)OCCCCCC [compound 382] | 5.28E+07 | 6.78E+06 | 1.88E+05 | different delivery preferences to different immune cells
